Experimental data: patent US20090042726A1, “Novel Herbicides” (SYNGENTA LIMITED, priority 2005, published 2009)

System: Monocotyledonous and dicotyledonous test plants
Assay: Herbicidal action, application pre-emergence (Example B1)
Format: in vivo
Design: key: 10=total damage to plant; 0=no damage to plant
Details: 1000 g/ha, evaluated after 9 or 13 days; for AGSTE herbicidal action (damage score 0-10): Agrostis-tenius; for AMARE herbicidal action (damage score 0-10): Amaranthus retroflexus; for DIGSA herbicidal action (damage score 0-10): Digitaria sanguinalis; for POATR herbicidal action (damage score 0-10): Poa trivialis; for SETIT herbicidal action (damage score 0-10): Setaria italica
Experimental: Monocotyledonous and dicotyledonous test plants were sown in sterilised standard soil in seed trays each having 96 cells. After one day (pre-emergence) under controlled conditions in a climatic chamber (cultivation at 23/17° C., day/night; 13 hours light; 50-60% humidity; after application at 24/19° C., day/night), the plants were treated with an aqueous spray solution of 1000 mg/l of the active ingredient used (including 10% DMSO as solvent). The plants were grown on in the climatic chamber until the test was evaluated (10=total damage to plant, 0=no damage to plant) after 9 or 13 days.

SMILES: CCc1nn(C)nc1C[S+]([O-])C1=NOC(C)(C)C1F (mixture of isomers) [7.32]
- AGSTE herbicidal action (damage score 0-10): 10
- AMARE herbicidal action (damage score 0-10): 7
- DIGSA herbicidal action (damage score 0-10): 9
- POATR herbicidal action (damage score 0-10): 9

SMILES: Cc1nn(C)c(OCC(F)(F)F)c1CS(=O)(=O)C1=NOC(C)(C)C1F (stereo not drawn) [2.63]
- AGSTE herbicidal action (damage score 0-10): 10
- AMARE herbicidal action (damage score 0-10): 10
- DIGSA herbicidal action (damage score 0-10): 8
- POATR herbicidal action (damage score 0-10): 10

SMILES: CCc1nn(C)nc1CSC1=NOC(C)(C)C1F (stereo not drawn) [Compound No. 7.31]
- AGSTE herbicidal action (damage score 0-10): 9
- AMARE herbicidal action (damage score 0-10): 0
- DIGSA herbicidal action (damage score 0-10): 7
- POATR herbicidal action (damage score 0-10): 0

SMILES: Cn1nc(C(F)(F)F)c(C[S+]([O-])C2=NOC(C)(C)C2Cl)c1OC(F)F (mixture of isomers) [2.17]
- AGSTE herbicidal action (damage score 0-10): 10
- AMARE herbicidal action (damage score 0-10): 6
- DIGSA herbicidal action (damage score 0-10): 10
- POATR herbicidal action (damage score 0-10): 10
- SETIT herbicidal action (damage score 0-10): 9

SMILES: Cn1nc(C(F)(F)F)c(C[S+]([O-])C2=NOC(C)(C)C2F)c1OCC(F)(F)F (mixture of isomers) [2.08]
- AGSTE herbicidal action (damage score 0-10): 10
- AMARE herbicidal action (damage score 0-10): 10
- DIGSA herbicidal action (damage score 0-10): 10
- POATR herbicidal action (damage score 0-10): 10
- SETIT herbicidal action (damage score 0-10): 10

SMILES: Cn1nc(C(F)(F)F)c(C[S+]([O-])C2=NOC(C)(C)C2F)c1OC(F)F (single isomer, unassigned) [2.24]
- AGSTE herbicidal action (damage score 0-10): 10
- AMARE herbicidal action (damage score 0-10): 10
- DIGSA herbicidal action (damage score 0-10): 10
- POATR herbicidal action (damage score 0-10): 10
- SETIT herbicidal action (damage score 0-10): 10

SMILES: Cn1nnc(Br)c1CS(=O)(=O)C1=NOC(C)(C)C1F (stereo not drawn) [11.03]
- AGSTE herbicidal action (damage score 0-10): 10
- AMARE herbicidal action (damage score 0-10): 3
- DIGSA herbicidal action (damage score 0-10): 9
- POATR herbicidal action (damage score 0-10): 10

SMILES: CC(c1c(C(F)(F)F)nn(C)c1OCC(F)(F)F)S(=O)(=O)C1=NOC(C)(C)C1F (mixture of isomers) [Compound No. 2.12]
- AGSTE herbicidal action (damage score 0-10): 10
- AMARE herbicidal action (damage score 0-10): 6
- DIGSA herbicidal action (damage score 0-10): 9
- POATR herbicidal action (damage score 0-10): 10
- SETIT herbicidal action (damage score 0-10): 9

SMILES: Cn1nc(C[S+]([O-])C2=NOC(C)(C)C2F)c(C(F)(F)F)c1C#N (single isomer, unassigned) [4.07]
- AGSTE herbicidal action (damage score 0-10): 10
- AMARE herbicidal action (damage score 0-10): 9
- DIGSA herbicidal action (damage score 0-10): 9
- POATR herbicidal action (damage score 0-10): 10

SMILES: Cn1nc(OC(F)F)cc1C[S+]([O-])C1=NOC(C)(C)C1F (mixture of isomers) [6.09]
- AGSTE herbicidal action (damage score 0-10): 10
- AMARE herbicidal action (damage score 0-10): 10
- DIGSA herbicidal action (damage score 0-10): 9
- POATR herbicidal action (damage score 0-10): 9

SMILES: C=CCn1cc(CS(=O)(=O)C2=NOC(C)(C)C2F)c(C(F)(F)F)n1 (stereo not drawn) [2.53]
- AGSTE herbicidal action (damage score 0-10): 10
- AMARE herbicidal action (damage score 0-10): 10
- DIGSA herbicidal action (damage score 0-10): 9
- POATR herbicidal action (damage score 0-10): 10

SMILES: Cn1nc(C(F)(F)F)c(C[S+]([O-])C2=NOC(C)(C)C2Br)c1OC(F)F (stereo not drawn) [Compound No. 2.05, 4-bromo-3-(5-difluoromethoxy-1-methyl-3-trifluoromethyl-1H-pyrazol-4-ylmethylsulfinyl)-5,5-dimethyl-4,5-dihydro-isoxazole]
- AGSTE herbicidal action (damage score 0-10): 9
- AMARE herbicidal action (damage score 0-10): 2
- DIGSA herbicidal action (damage score 0-10): 8
- POATR herbicidal action (damage score 0-10): 0
- SETIT herbicidal action (damage score 0-10): 9

SMILES: Cn1nc(OC(F)F)cc1CS(=O)(=O)C1=NOC(C)(C)C1F (stereo not drawn) [6.10]
- AGSTE herbicidal action (damage score 0-10): 10
- AMARE herbicidal action (damage score 0-10): 7
- DIGSA herbicidal action (damage score 0-10): 0
- POATR herbicidal action (damage score 0-10): 9

SMILES: Cc1nn(C)nc1CSC1=NOC(C)(C)C1F (stereo not drawn) [Compound No. 7.01]
- AGSTE herbicidal action (damage score 0-10): 10
- AMARE herbicidal action (damage score 0-10): 0
- DIGSA herbicidal action (damage score 0-10): 8
- POATR herbicidal action (damage score 0-10): 0
- SETIT herbicidal action (damage score 0-10): 8

SMILES: Cn1nnc(Br)c1C[S+]([O-])C1=NOC(C)(C)C1F (mixture of isomers) [11.02]
- AGSTE herbicidal action (damage score 0-10): 10
- AMARE herbicidal action (damage score 0-10): 5
- DIGSA herbicidal action (damage score 0-10): 9
- POATR herbicidal action (damage score 0-10): 10

SMILES: C#CCn1cc(C[S+]([O-])C2=NOC(C)(C)C2F)c(C(F)(F)F)n1 (mixture of isomers) [2.49]
- AGSTE herbicidal action (damage score 0-10): 10
- AMARE herbicidal action (damage score 0-10): 10
- DIGSA herbicidal action (damage score 0-10): 10
- POATR herbicidal action (damage score 0-10): 10

SMILES: CC(C)n1nc(CS(=O)(=O)C2=NOC(C)(C)C2F)c(C(F)(F)F)n1 (stereo not drawn) [7.27]
- AGSTE herbicidal action (damage score 0-10): 9
- AMARE herbicidal action (damage score 0-10): 1
- DIGSA herbicidal action (damage score 0-10): 10
- POATR herbicidal action (damage score 0-10): 0

SMILES: Cn1nc(C(F)(F)F)c(CS(=O)(=O)C2=NOC(C)(C)C2F)c1F (stereo not drawn) [2.56]
- AGSTE herbicidal action (damage score 0-10): 10
- AMARE herbicidal action (damage score 0-10): 10
- DIGSA herbicidal action (damage score 0-10): 10
- POATR herbicidal action (damage score 0-10): 10

SMILES: COCCn1nc(CSC2=NOC(C)(C)C2F)c(C(F)(F)F)n1 (stereo not drawn) [Compound No. 7.18]
- AGSTE herbicidal action (damage score 0-10): 7
- AMARE herbicidal action (damage score 0-10): 8
- DIGSA herbicidal action (damage score 0-10): 8
- POATR herbicidal action (damage score 0-10): 0

SMILES: COc1ncc(CS(=O)(=O)C2=NOC(C)(C)C2F)c(C(F)(F)F)n1 (stereo not drawn) [5.03]
- AGSTE herbicidal action (damage score 0-10): 10
- AMARE herbicidal action (damage score 0-10): 10
- DIGSA herbicidal action (damage score 0-10): 8
- POATR herbicidal action (damage score 0-10): 10

SMILES: COc1cc(C[S+]([O-])C2=NOC(C)(C)C2F)n(C)n1 (mixture of isomers) [6.12]
- AGSTE herbicidal action (damage score 0-10): 10
- AMARE herbicidal action (damage score 0-10): 10
- DIGSA herbicidal action (damage score 0-10): 10
- POATR herbicidal action (damage score 0-10): 10

SMILES: Cn1nc(C(F)(F)F)c(CS(=O)(=O)C2=NOC(C)(C)C2Br)c1OC(F)F (stereo not drawn) [Compound No. 2.06, 4-Bromo-3-(5-difluoromethoxy-1-methyl-3-trifluoromethyl-1H-pyrazol-4-ylmethylsulfonyl)-5,5-dimethyl-4,5-dihydro-isoxazole]
- AGSTE herbicidal action (damage score 0-10): 10
- AMARE herbicidal action (damage score 0-10): 7
- DIGSA herbicidal action (damage score 0-10): 8
- POATR herbicidal action (damage score 0-10): 9
- SETIT herbicidal action (damage score 0-10): 7

SMILES: CC1(C)ON=C(S(=O)(=O)Cc2ccccc2OC(F)(F)F)C1F (stereo not drawn) [1.11]
- AGSTE herbicidal action (damage score 0-10): 10
- AMARE herbicidal action (damage score 0-10): 7
- DIGSA herbicidal action (damage score 0-10): 10
- POATR herbicidal action (damage score 0-10): 10
- SETIT herbicidal action (damage score 0-10): 8

SMILES: Cn1nc(C(F)(F)F)c(C[S+]([O-])C2=NOC(C)(C)C2F)c1OC(F)F (single isomer, unassigned) [2.25]
- AGSTE herbicidal action (damage score 0-10): 10
- AMARE herbicidal action (damage score 0-10): 10
- DIGSA herbicidal action (damage score 0-10): 10
- POATR herbicidal action (damage score 0-10): 10
- SETIT herbicidal action (damage score 0-10): 10

SMILES: CCn1ncc(C[S+]([O-])C2=NOC(C)(C)C2F)n1 (mixture of isomers) [7.35]
- AGSTE herbicidal action (damage score 0-10): 10
- AMARE herbicidal action (damage score 0-10): 8
- DIGSA herbicidal action (damage score 0-10): 9
- POATR herbicidal action (damage score 0-10): 9

SMILES: COc1cc(CS(=O)(=O)C2=NOC(C)(C)C2F)n(C)n1 (stereo not drawn) [6.13]
- AGSTE herbicidal action (damage score 0-10): 10
- AMARE herbicidal action (damage score 0-10): 10
- DIGSA herbicidal action (damage score 0-10): 9
- POATR herbicidal action (damage score 0-10): 10

SMILES: Cc1nn(C(C)C)nc1C[S+]([O-])C1=NOC(C)(C)C1F (mixture of isomers) [7.38]
- AGSTE herbicidal action (damage score 0-10): 10
- AMARE herbicidal action (damage score 0-10): 6
- DIGSA herbicidal action (damage score 0-10): 7
- POATR herbicidal action (damage score 0-10): 7
